Results on 21 compounds are retold here after patent publication US20090062253A1, “HETEROCYCLODIAZEPINE CANNABINOID RECEPTOR MODULATORS FOR TREATMENT OF DISEASE” (KALYPSYS, INC., priority 2007, published 2009).

Test [1] has as its target T1, Human CB2 (Homo sapiens, UniProt P34972).
T1 construct: expressed in transfected cells; membrane preparation
The experiment in a line: Human CB2 Radioligand Binding Assay. The following applies: membranes from stably transfected CHO CB2 cells; competition with [3H] CP-55,940; read-out: CB2 Ligand Binding Asssay. Here is the method:
(§1) This receptor binding filtration assay measures the receptor-ligand interactions of compounds by measuring ability to compete with a radiolabeled control ligand. Reactions were performed in 96 deep-well plate (Costar 3961) with a final volume of 600 ul. Compounds were added to each well either in single point (10 uM final) or dose-response. Compounds were delivered in DMSO or further diluted in incubation buffer to a final assay DMSO concentration of 1%. Incubation buffer (50 mM Tris-HCl pH 7.4, 2.5 mM EGTA, 5 mM MgCl2, 5.0 mg/ml fatty acid free BSA) was added to each well. Following buffer addition, [^3H] CP-55,940 was added. Tritiated CP-55,940 (Perkin Elmer) was used at the Kd determined from prior saturation binding experiments conducted on each lot of membranes. Membrane preparations from stably transfected CHO CB2 cells were added and the reaction was incubated for 90 minutes at 30° C. Unifilter GF/C filtration plates (Perkin Elmer) were pre-wet with 0.05% polyethylenimine. Samples were transferred to Unifilter plates and separation of unbound radioligand was achieved using a vacuum manifold (Millipore). Following thorough washing with 5 ml/well ice-cold wash buffer (50 mM Tris-HCl pH 7.4, 2.5 mM EGTA, 5 mM MgCl2, 0.5 mg/ml fatty acid free BSA), filterplates were dried completely. Betaplate Scint Scintillation cocktail (25 ul, Perkin Elmer) was applied and plates were read using Microbeta Trilux (Wallac). Data analysis was performed in Spotfire. Activity of the positive control (100 nM CP-55,940) was set as 100% efficacy.
Stable recombinant Human CB2-CHO cell membranes were prepared as follows: Chinese Hamster Ovarian (CHO) cells stably expressing human cannabinoid receptor type 2 were grown to ˜90% confluence in 15×100 mm culture dishes under puromycin selection (5 ug/ml) Cells were harvested from culture flasks using a cell scraper, were washed once with cold phosphate-buffered saline (calcium and magnesium free) and pelleted by centrifugation at 400 g for 5 min at 4° C. Cell pellet was washed once with cold phosphate-buffered saline and centrifuged again at 400×g for 5 min at 4° C. The pellet was suspended in ice-cold lysis buffer (10 mM Tris-HCl, 0.1 mM EDTA, containing […], pH 7.5) and homogenized in a chilled 7 ml glass dounce homogenizer using 50 strokes. The homogenate was centrifuged at 400 g for 15 min at 4° C. The cloudy supernatant was collected and centrifuged at 41000 g for 30 min at 4° C. The resulting pellet was washed with ice-cold sucrose-free lysis buffer and centrifuged again at 41000 g for 30 min at 4° C. The membrane pellet was suspended in sucrose-free storage buffer (10 mm Tris-HCl, 0.1 mM EDTA, pH 7.5) to a concentration of 2-3 mg protein/ml. Aliquots were flash frozen in liquid nitrogen and stored at −80° C. Concentration was determined using Dc protein assay kit (Bio-Rad).

The target in test [2] is T2, human cannabinoid receptor type 1 (Homo sapiens, UniProt P21554).
T2 construct: purchased Perkin Elmer RBHCB1M; host or cells: HEK 293 EBNA cells
The experiment in a line: Human CB1 Radioligand Binding Assay (basis of selectivity CB2 vs. CB1). As to the method:
as §1
The CB1 binding assay was performed as described above except that HEK 293 EBNA cells expressing human cannabinoid receptor type 1 (Perkin Elmer cat #RBHCB1M) were used according the manufacturer's instructions. The incubation buffer was composed of 50 mM Tris-HCl pH 7.4, 2.5 mM EDTA, 5 mM MgCl2, 5.0 mg/ml fatty acid free BSA and the wash buffer was composed of 50 mM Tris-HCl pH 7.4, 2.5 mM EDTA, 5 mM MgCl2, 0.5 mg/ml fatty acid free BSA. Activity of the positive control (100 nM CP-55,940) was set as 100% efficacy.

T1 sequence (P34972 whole entry): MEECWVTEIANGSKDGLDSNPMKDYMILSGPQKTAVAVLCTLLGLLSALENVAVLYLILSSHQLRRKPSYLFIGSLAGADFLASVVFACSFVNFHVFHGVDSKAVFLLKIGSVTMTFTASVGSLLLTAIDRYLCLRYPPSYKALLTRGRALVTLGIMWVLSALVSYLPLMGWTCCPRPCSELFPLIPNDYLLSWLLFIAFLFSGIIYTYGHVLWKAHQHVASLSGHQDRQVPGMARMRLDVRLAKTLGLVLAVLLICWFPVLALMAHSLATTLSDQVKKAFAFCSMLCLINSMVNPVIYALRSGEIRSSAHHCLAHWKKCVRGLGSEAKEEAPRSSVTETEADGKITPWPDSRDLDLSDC
T2 sequence (P21554 whole entry): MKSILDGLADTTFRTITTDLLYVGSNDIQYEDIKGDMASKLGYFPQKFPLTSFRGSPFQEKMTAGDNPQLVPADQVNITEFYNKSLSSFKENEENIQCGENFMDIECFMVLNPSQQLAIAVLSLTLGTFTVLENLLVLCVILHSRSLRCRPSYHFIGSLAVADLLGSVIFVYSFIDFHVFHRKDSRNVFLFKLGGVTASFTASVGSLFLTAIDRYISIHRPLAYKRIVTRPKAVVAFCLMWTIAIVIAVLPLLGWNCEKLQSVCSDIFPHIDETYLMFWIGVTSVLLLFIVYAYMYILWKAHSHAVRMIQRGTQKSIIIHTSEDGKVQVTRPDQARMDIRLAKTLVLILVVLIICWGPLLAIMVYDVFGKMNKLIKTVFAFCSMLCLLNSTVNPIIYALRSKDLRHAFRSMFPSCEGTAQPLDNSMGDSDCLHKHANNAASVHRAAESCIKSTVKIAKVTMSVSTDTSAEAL

Turning to `CC(C)(C)c1ccc(C2c3cccn3CCC2C(=O)Nc2ccc(F)c(F)c2)cc1` (mixture of isomers) [Example 95, 8-(4-tert-Butylphenyl)-N-(3,4-difluorophenyl)-5,6,7,8-tetrahydroindolizine-7-carboxamide], the IC50 (radioligand displacement) in test [1] is below 1000 nM. In test [2], the “Selectivity, CB2 vs. CB1” value is “+ (+ indicates > 10-fold)”.
Take `O=C(Nc1ccc(F)cc1F)C1CCn2cccc2C1c1ccccc1` (mixture of isomers) [Example 100, N-(2,4-Difluorophenyl)-8-phenyl-5,6,7,8-tetrahydroindolizine-7-carboxamide]: in test [1], the IC50 (radioligand displacement) was above 1000 nM. Further, the “Selectivity, CB2 vs. CB1” value in test [2] is on record as “− (− indicates < 10-fold)”.
`O=C(Nc1ccc(F)c(F)c1)C1CCn2cccc2C1c1ccccc1` (mixture of isomers) [Example 101, N-(3,4-Difluorophenyl)-8-phenyl-5,6,7,8-tetrahydroindolizine-7-carboxamide]: in test [1], the IC50 (radioligand displacement) was above 1000 nM. The “Selectivity, CB2 vs. CB1” value in test [2] is reported as “− (− indicates < 10-fold)”.
The matching figures for `O=C(Nc1ccc(Cl)cc1)C1CCn2cccc2C1c1ccccc1` (mixture of isomers) [Example 102, N-(4-Chlorophenyl)-8-phenyl-5,6,7,8-tetrahydroindolizine-7-carboxamide]: above 1000 nM and “− (− indicates < 10-fold)”.
Take `O=C(Nc1ccc(C(F)(F)F)cc1)C1CCn2cccc2C1c1ccccc1` (mixture of isomers) [Example 103, 8-Phenyl-N-(4-(trifluoromethyl)phenyl)-5,6,7,8-tetrahydroindolizine-7-carboxamide]: the IC50 (radioligand displacement) in test [1] was above 1000 nM. In addition, the “Selectivity, CB2 vs. CB1” value in test [2] is “− (− indicates < 10-fold)”.
For `O=C(Nc1ccc(OC(F)(F)F)cc1)C1CCn2cccc2C1c1ccccc1` (mixture of isomers) [Example 104, 8-Phenyl-N-(4-(trifluoromethoxy)phenyl)-5,6,7,8-tetrahydroindolizine-7-carboxamide], the IC50 (radioligand displacement) in test [1] is above 1000 nM. For the same compound, in test [2], the “Selectivity, CB2 vs. CB1” value is on record as “− (− indicates < 10-fold)”.
Take `CC(C)(C)c1ccc(C2c3cccn3CCCC2NC(=O)Nc2ccc(Cl)cc2)cc1` (mixture of isomers) [Example 115, 1-(9-(4-tert-Butylphenyl)-6,7,8,9-tetrahydro-5H-pyrrolo[1,2-a]azepin-8-yl)-3-(4-chlorophenyl)urea]: the IC50 (radioligand displacement) in test [1] is above 1000 nM. Besides, the “Selectivity, CB2 vs. CB1” value in test [2] is “+ (+ indicates > 10-fold)”.
Consider `CC(C)(C)c1ccc(C2c3cccn3CCCC2NC(=O)Nc2ccc(F)cc2F)cc1` (mixture of isomers) [Example 116, 1-(9-(4-tert-Butylphenyl)-6,7,8,9-tetrahydro-5H-pyrrolo[1,2-a]azepin-8-yl)-3-(2,4-difluorophenyl)urea], for which the IC50 (radioligand displacement) in test [1] was below 1000 nM. In test [2], the “Selectivity, CB2 vs. CB1” value was “− (− indicates < 10-fold)”.
Consider `CC(C)(C)c1ccc(C2c3cccn3CCCC2NC(=O)Nc2ccc(F)c(F)c2)cc1` (mixture of isomers) [Example 117, 1-(9-(4-tert-Butylphenyl)-6,7,8,9-tetrahydro-5H-pyrrolo[1,2-a]azepin-8-yl)-3-(3,4-difluorophenyl)urea], for which the IC50 (radioligand displacement) in test [1] is below 1000 nM. In addition, the “Selectivity, CB2 vs. CB1” value in test [2] was “− (− indicates < 10-fold)”.
In the same order, the values of `CC(C)(C)c1ccc(C2c3cccn3CCCC2NC(=O)Nc2ccc(C(F)(F)F)cc2)cc1` (mixture of isomers) [Example 122, 1-(9-(4-tert-Butylphenyl)-6,7,8,9-tetrahydro-5H-pyrrolo[1,2-a]azepin-8-yl)-3-(4-(trifluoromethyl)phenyl)urea] are below 1000 nM and “+ (+ indicates > 10-fold)”.
Regarding `CC(C)(C)c1ccc(CC2[C@@H]3CCCN3CCCN2C(=O)Nc2ccc(F)cc2F)cc1` (mixture of isomers) [Example 124, (9aS)-1-(4-tert-Butylbenzyl)-N-(2,4-difluorophenyl)hexahydro-1H-pyrrolo[1,2-a][1,4]diazepine-2(3H)-carboxamide], the IC50 (radioligand displacement) in test [1] is above 1000 nM. Besides, the “Selectivity, CB2 vs. CB1” value in test [2] was “− (− indicates < 10-fold)”.
`CC(C)(C)c1ccc(CC2[C@@H]3CCCN3CCCN2C(=O)Nc2ccc(Cl)cc2)cc1` (mixture of isomers) [Example 125, (9aS)-1-(4-tert-Butylbenzyl)-N-(4-chlorophenyl)hexahydro-1H-pyrrolo[1,2-a][1,4]diazepine-2(3H)-carboxamide]: the IC50 (radioligand displacement) in test [1] is above 1000 nM. For the same compound, the “Selectivity, CB2 vs. CB1” value in test [2] is reported as “− (− indicates < 10-fold)”.
With `CC(C)(C)c1ccc(CC2[C@@H]3CCCN3CCCN2C(=O)Nc2ccccc2)cc1` (mixture of isomers) [Example 126, (9aS)-1-(4-tert-Butylbenzyl)-N-phenylhexahydro-1H-pyrrolo[1,2-a][1,4]diazepine-2(3H)-carboxamide], the IC50 (radioligand displacement) in test [1] is above 1000 nM. Also, the “Selectivity, CB2 vs. CB1” value in test [2] is given as “− (− indicates < 10-fold)”.
Take `CC(C)(C)c1ccc(CC2[C@@H]3CCCN3CCCN2C(=O)Nc2ccc(F)cc2)cc1` (mixture of isomers) [Example 127, (9aS)-1-(4-tert-Butylbenzyl)-N-(4-fluorophenyl)hexahydro-1H-pyrrolo[1,2-a][1,4]diazepine-2(3H)-carboxamide]: the IC50 (radioligand displacement) in test [1] is above 1000 nM. Moreover, the “Selectivity, CB2 vs. CB1” value in test [2] is on record as “− (− indicates < 10-fold)”.
Regarding `CC(C)(C)c1ccc(C2c3cccn3CCN2C(=O)Nc2ccc(Cl)cc2Cl)cc1` (centres unmarked) [Example 3, 1-(4-tert-Butylphenyl)-N-(2,4-dichlorophenyl)-3,4-dihydropyrrolo[1,2-a]pyrazine-2(1H)-carboxamide], the IC50 (radioligand displacement) in test [1] was below 1000 nM.
For `CC(C)(C)c1ccc(C2NCCCn3cccc32)cc1` (centres unmarked) [Example 6, 1-(4-tert-Butylphenyl)-2,3,4,5-tetrahydro-1H-pyrrolo[1,2-a][1,4]diazepine], the IC50 (radioligand displacement) in test [1] was above 1000 nM.
For `Cc1ccc(C2c3cccn3CCCN2C(=O)Nc2ccc(Cl)cc2Cl)cc1` (centres unmarked) [Example 9, N-(2,4-Dichlorophenyl)-1-p-tolyl-4,5-dihydro-1H-pyrrolo[1,2-a][1,4]diazepine-2(3H)-carboxamide], the IC50 (radioligand displacement) in test [1] was below 1000 nM.
Turning to `O=C(Nc1ccc(F)cc1F)N1CCCn2cccc2C1c1ccc(OC(F)(F)F)cc1` (centres unmarked) [Example 15, N-(2,4-Difluorophenyl)-1-(4-(trifluoromethoxy)phenyl)-4,5-dihydro-1H-pyrrolo[1,2-a][1,4]diazepine-2(3H)-carboxamide], in test [1], the IC50 (radioligand displacement) is below 1000 nM.
In the case of `O=C(Nc1ccc(Cl)cc1Cl)N1CCCn2cccc2C1c1ccc(OC(F)(F)F)cc1` (centres unmarked) [Example 16], the IC50 (radioligand displacement) in test [1] is above 1000 nM.
For `O=C(Nc1ccc(C(F)(F)F)cc1)C1=C(c2ccccc2)c2cccn2CC1` [Example 68, 8-Phenyl-N-(4-(trifluoromethyl)phenyl)-5,6-dihydroindolizine-7-carboxamide], the IC50 (radioligand displacement) in test [1] is above 1000 nM.
For `O=C(Nc1ccc(F)cc1F)C1=C(c2ccccc2)c2cccn2CC1` [Example 70, N-(2,4-Difluorophenyl)-8-phenyl-5,6-dihydroindolizine-7-carboxamide], the IC50 (radioligand displacement) in test [1] was above 1000 nM.
